Blank lines part the entries; values can stand above or below the compound they belong to. Calls of active or inactive are those of the source.
What was measured:
CAAX prenyl protease 2 [1] = molecular target: T1, CAAX prenyl protease 2 (Saccharomyces cerevisiae S288c, UniProt Q03530); format: biochemical
T1 sequence (Q03530 whole entry): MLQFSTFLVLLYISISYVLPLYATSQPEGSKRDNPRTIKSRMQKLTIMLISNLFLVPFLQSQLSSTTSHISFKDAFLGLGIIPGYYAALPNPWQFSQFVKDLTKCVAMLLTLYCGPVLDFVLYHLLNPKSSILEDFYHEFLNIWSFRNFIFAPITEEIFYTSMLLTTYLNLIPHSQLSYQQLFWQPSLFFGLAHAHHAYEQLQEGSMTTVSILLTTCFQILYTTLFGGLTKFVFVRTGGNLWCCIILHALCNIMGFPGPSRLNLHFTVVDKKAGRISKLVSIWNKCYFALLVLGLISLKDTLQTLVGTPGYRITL

CAAX prenyl protease 2 [2] = molecular target: CAAX prenyl protease 2 (Homo sapiens, UniProt Q9Y256); test: human Rce1 protease inhibitors, dose response, biochemical, yeast membranes, quenched-peptide fluorescence, cherry-pick (AID 588849)
Sequence of CAAX prenyl protease 2 (Homo sapiens, UniProt Q9Y256) (Q9Y256 whole entry): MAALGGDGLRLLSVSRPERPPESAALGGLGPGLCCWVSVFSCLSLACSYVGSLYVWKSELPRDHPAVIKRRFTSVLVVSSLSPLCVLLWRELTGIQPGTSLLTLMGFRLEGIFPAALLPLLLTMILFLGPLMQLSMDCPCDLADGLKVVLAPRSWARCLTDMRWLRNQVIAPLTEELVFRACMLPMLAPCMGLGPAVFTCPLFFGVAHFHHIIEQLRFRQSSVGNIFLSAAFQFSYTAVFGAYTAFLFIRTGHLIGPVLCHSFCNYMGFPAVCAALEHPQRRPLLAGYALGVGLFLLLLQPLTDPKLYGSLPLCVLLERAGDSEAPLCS

Beta-galactosidase = Beta-galactosidase (Escherichia coli, UniProt Q8VNN2); test: PubChem AID 485352; format: functional
Sequence of Beta-galactosidase (Q8VNN2 whole entry): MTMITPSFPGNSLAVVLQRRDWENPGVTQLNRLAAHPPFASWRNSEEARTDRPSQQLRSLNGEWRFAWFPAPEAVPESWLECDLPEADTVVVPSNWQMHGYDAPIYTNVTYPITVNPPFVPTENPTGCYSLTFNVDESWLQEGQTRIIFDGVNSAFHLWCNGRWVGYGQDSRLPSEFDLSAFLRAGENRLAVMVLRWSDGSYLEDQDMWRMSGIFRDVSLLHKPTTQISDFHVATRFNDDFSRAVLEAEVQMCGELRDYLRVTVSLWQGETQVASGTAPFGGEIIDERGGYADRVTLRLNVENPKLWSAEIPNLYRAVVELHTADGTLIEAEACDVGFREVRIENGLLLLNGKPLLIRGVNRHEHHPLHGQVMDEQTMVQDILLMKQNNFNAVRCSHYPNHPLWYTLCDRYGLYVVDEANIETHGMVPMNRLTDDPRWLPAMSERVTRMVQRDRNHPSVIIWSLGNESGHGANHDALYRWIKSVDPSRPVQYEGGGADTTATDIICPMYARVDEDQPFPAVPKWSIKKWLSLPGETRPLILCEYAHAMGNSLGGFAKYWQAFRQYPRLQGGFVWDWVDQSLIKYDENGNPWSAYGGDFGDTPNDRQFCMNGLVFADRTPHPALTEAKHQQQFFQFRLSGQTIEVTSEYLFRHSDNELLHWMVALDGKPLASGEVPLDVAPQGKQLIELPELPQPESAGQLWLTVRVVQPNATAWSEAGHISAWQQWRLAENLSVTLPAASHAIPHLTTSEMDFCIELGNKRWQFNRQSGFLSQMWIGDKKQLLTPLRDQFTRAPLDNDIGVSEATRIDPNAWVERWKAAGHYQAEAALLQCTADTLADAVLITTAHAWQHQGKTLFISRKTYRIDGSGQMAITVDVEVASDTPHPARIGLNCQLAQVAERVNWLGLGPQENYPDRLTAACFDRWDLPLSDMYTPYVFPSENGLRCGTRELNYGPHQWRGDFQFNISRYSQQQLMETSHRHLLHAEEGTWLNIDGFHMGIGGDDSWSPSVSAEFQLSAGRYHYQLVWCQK

[3] = molecular target: Type-1 angiotensin II receptor (Homo sapiens, UniProt P30556); test: AT1 receptor antagonists, dose response, selectivity assay for APJ receptor antagonist project, cell-based, uHTS hits (AID 463214); format: functional;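 further: antagonist potency against angiotensin II stimulated AT1 response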
Sequence of Type-1 angiotensin II receptor (P30556 whole entry): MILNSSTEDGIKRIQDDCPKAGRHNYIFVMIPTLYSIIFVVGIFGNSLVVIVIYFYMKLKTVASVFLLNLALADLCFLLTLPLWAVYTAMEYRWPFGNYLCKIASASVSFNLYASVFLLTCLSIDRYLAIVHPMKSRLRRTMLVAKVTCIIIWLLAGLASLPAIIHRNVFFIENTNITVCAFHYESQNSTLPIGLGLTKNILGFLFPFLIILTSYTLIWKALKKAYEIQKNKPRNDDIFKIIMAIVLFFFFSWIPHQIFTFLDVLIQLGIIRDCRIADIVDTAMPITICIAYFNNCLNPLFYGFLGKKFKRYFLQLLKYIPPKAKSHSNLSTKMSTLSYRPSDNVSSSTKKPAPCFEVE

[4] = molecular target: Ras and Rab interactor 1/Tyrosine-protein kinase ABL1 (Homo sapiens, UniProt P00519+Q13671); format: functional;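 further: biochemical TR-FRET dose-response test measuring inhibition of binding between Rin1 and Abl proteins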
Sequence of Ras and Rab interactor 1/Tyrosine-protein kinase ABL1 (P00519 whole entry): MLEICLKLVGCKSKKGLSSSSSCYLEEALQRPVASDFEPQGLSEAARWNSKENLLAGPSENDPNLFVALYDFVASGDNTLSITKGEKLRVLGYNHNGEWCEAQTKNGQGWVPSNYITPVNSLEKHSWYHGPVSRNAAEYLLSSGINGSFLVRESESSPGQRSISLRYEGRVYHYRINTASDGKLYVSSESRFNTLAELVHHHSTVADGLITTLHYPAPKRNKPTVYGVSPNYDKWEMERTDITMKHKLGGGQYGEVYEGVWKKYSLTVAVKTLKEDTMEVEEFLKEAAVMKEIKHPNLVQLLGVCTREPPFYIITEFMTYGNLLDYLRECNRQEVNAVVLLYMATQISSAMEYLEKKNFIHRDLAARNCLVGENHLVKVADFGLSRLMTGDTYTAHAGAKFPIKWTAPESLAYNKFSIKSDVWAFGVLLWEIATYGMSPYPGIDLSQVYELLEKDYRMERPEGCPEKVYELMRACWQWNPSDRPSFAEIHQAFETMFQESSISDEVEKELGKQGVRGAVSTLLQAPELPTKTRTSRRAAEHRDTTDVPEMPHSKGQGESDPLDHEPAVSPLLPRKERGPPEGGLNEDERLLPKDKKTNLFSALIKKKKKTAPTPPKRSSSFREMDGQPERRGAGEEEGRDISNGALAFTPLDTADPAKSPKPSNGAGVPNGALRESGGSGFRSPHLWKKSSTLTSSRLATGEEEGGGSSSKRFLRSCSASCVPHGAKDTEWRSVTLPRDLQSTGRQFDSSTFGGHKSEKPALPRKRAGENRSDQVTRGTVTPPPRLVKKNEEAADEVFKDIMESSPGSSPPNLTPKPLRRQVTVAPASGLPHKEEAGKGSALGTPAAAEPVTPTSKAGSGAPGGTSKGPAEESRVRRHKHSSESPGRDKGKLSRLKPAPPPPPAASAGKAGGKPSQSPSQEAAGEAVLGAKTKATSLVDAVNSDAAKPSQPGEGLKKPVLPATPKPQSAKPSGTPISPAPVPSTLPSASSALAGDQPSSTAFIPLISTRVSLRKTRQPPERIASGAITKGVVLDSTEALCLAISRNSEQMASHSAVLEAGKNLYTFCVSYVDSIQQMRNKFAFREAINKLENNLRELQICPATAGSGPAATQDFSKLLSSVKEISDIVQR
Sequence of Ras and Rab interactor 1/Tyrosine-protein kinase ABL1 (Q13671 whole entry): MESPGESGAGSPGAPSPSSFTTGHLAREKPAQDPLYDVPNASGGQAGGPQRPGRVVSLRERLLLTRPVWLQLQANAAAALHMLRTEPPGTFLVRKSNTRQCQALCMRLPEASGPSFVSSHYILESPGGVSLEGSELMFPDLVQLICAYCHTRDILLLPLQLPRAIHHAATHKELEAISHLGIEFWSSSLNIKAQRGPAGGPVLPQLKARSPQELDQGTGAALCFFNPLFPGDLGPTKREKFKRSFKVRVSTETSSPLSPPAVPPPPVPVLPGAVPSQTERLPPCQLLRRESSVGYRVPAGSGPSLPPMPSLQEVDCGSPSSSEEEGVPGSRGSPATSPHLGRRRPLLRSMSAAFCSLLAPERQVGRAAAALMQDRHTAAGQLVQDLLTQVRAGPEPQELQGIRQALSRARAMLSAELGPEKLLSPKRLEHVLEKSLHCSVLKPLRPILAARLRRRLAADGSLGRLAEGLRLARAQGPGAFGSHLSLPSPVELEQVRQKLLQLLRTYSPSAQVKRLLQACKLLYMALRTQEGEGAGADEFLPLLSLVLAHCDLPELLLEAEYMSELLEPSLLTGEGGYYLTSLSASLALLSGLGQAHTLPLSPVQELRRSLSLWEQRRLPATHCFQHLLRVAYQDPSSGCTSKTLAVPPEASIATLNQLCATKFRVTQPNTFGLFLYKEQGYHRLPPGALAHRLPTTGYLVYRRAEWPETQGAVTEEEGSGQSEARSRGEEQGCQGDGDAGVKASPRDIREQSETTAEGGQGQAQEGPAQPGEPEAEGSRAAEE

[5] = growth suppression of PTEN-null colon cells, dose response, cell-based, HCT116 PTEN knockout (AID 1047); format: functional;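 further: HCT116 colon tumor cells with PTEN knocked out; cells exposed to compound for 60 hours before readout; potency for loss of cell viability measured by luminescence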
[6] = growth suppression of beta-catenin-knockout colon cells, dose response, cell-based, HCT116, human colon tumor (AID 1045); format: functional;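 further: HCT116 colon tumor cells with beta catenin knocked out; cells exposed to compound for 60 hours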
[7] = molecular target: T2, Microphthalmia-associated transcription factor (Homo sapiens, UniProt O75030); test: TRPM1 promoter luciferase signal decrease, dose response, MITF inhibitor project, cell-based, SK-MEL-5, cherry-picked, set 3 (AID 493073); format: functional
T2 sequence (O75030 whole entry): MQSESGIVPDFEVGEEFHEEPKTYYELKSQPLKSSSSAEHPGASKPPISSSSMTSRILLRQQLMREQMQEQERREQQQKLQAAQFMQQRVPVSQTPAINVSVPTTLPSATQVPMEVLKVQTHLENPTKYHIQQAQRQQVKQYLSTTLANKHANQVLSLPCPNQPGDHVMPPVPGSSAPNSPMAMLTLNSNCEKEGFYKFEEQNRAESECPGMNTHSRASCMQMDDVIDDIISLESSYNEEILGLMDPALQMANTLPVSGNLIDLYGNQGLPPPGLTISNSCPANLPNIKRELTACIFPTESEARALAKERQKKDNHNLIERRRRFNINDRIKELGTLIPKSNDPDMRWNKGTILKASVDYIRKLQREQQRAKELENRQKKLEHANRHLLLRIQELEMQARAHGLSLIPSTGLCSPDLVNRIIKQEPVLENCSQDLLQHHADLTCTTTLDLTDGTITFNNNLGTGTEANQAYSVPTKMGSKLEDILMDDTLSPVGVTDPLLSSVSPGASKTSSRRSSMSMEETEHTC

[8] = molecular target: Heat shock protein HSP 90-alpha (Homo sapiens, UniProt P07900); format: functional, organism-based
A-375 [9] = test: MITF: Counter assay: A375 proliferation Measured in Cell-Based System Using Plate Reader - 2084-03_Inhibitor_Dose_DryPowder_Activity. [Related pubchem assays (depositor defined):AID488944]; format: functional; details: Homo sapiens
A-375 [10] = test: A375 melanoma cell viability reduction, dose response, counter-screen for MITF modulator project, cherry-pick samples, set 2 (AID 540335); format: functional, cell-based; details: Homo sapiens

AC50 (CAAX prenyl protease 2 [1]): 28.6 µM (active)
AC50 (CAAX prenyl protease 2 [2]): 3.72 µM (active)
Structure (SMILES): COc1ccc(-c2c(C)oc3c(CN4CCN(C)CC4)c(O)ccc3c2=O)cc1

EC50 (Beta-galactosidase): 39.3 µM (active)
IC50 [3]: 36 µM (not active)
Structure (SMILES): CCOC(=O)C1=C(C)N=C2CC(c3cccs3)CC(O)=C2C1c1cccs1 (stereo unspecified)

IC50 [4]: 21 µM (inactive)
Structure (SMILES): O=C1CNC(=O)/C1=C\NC12CC3CC(CC(C3)C1)C2

Structure (SMILES): O=C(/C=C/c1cccc([N+](=O)[O-])c1)c1cccs1
EC50 [5]: 14.3 µM (active)
EC50 [6]: 10.9 µM (active)
AC50 [7]: 15.3 µM (active)
AC50 [8]: 4.16 µM (active)
AC50 (A-375 [9]): > 35 µM (active)
AC50 (A-375 [10]): > 35 µM (active)
